Laboratory results: ChEMBL document CHEMBL1201862, “PubChem BioAssay data set” (2004)
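Compound exposure: 48 hours, 5 concentrations, 96-well plates. Abbreviation: GI50, concentration required for 50% inhibition of growth.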 Active and inactive are the calls of the source. Cut-off read from the data, not from the text of the source: active = GI50 up to about 1.1 µM and inactive = higher.

Legend:
Test in all cases: growth of human tumour cells (NCI), 48 h
786-0 = test system: 786-0
A549 = test system: A549
ACHN = test system: ACHN
CAKI-1 = test system: CAKI-1
CCRF-CEM = test system: CCRF-CEM
COLO 205 = test system: COLO 205
DLD-1 = test system: DLD-1
DMS-114 = test system: DMS-114
DMS-273 = test system: DMS-273
EKVX = test system: EKVX
HCC 2998 = test system: HCC 2998
HCT-116 = test system: HCT-116
HCT-15 = test system: HCT-15
HL-60 = test system: HL-60
HOP-18 = test system: HOP-18
HOP-62 = test system: HOP-62
HOP-92 = test system: HOP-92
HT-29 = test system: HT-29
IGROV-1 = test system: IGROV-1
K562 = test system: K562
KM-20L2 = test system: KM-20L2
KM12 = test system: KM12
LXFL 529 = test system: LXFL 529
M14 = test system: M14
M19-MEL = test system: M19-MEL
MOLT-4 = test system: MOLT-4
NCI-H226 = test system: NCI-H226
NCI-H23 = test system: NCI-H23
NCI-H460 = test system: NCI-H460
NCI-H522 = test system: NCI-H522
OVCAR-3 = test system: OVCAR-3
OVCAR-4 = test system: OVCAR-4
OVCAR-5 = test system: OVCAR-5
OVCAR-8 = test system: OVCAR-8
SF-268 = test system: SF-268
SF-295 = test system: SF-295
SF-539 = test system: SF-539
SK-MEL-28 = test system: SK-MEL-28
SK-MEL-5 = test system: SK-MEL-5
SK-OV-3 = test system: SK-OV-3
SN12C = test system: SN12C
SNB-19 = test system: SNB-19
SNB-75 = test system: SNB-75
SNB-78 = test system: SNB-78
SR = test system: SR
SW-620 = test system: SW-620
TK-10 = test system: TK-10
U-251 = test system: U-251
UACC-257 = test system: UACC-257
UACC-62 = test system: UACC-62
UO-31 = test system: UO-31
LOX IMVI = test system: LOX IMVI
Malme-3M = test system: Malme-3M
RPMI-8226 = test system: RPMI-8226
RXF 393 = test system: RXF 393
SK-MEL-2 = test system: SK-MEL-2
XF498 = test system: XF498

Clc1ccc(CCn2cncn2)c(Cl)c1
GI50 (786-0): > 100 µM (inactive)
GI50 (A549): > 100 µM (inactive)
GI50 (ACHN): > 100 µM (inactive)
GI50 (CAKI-1): > 100 µM (inactive)
GI50 (CCRF-CEM): > 100 µM (inactive)
GI50 (COLO 205): > 100 µM (inactive)
GI50 (DLD-1): > 100 µM (inactive)
GI50 (DMS-114): > 100 µM (inactive)
GI50 (DMS-273): > 100 µM (inactive)
GI50 (EKVX): > 100 µM (inactive)
GI50 (HCC 2998): > 100 µM (inactive)
GI50 (HCT-116): > 100 µM (inactive)
GI50 (HCT-15): > 100 µM
GI50 (HL-60): > 100 µM (inactive)
GI50 (HOP-18): 44.6 µM (inactive)
GI50 (HOP-62): > 100 µM (inactive)
GI50 (HOP-92): > 100 µM (inactive)
GI50 (HT-29): > 100 µM (inactive)
GI50 (IGROV-1): > 100 µM (inactive)
GI50 (K562): > 100 µM (inactive)
GI50 (KM-20L2): > 100 µM (inactive)
GI50 (KM12): > 100 µM (inactive)
GI50 (LXFL 529): > 100 µM (inactive)
GI50 (M14): > 100 µM (inactive)
GI50 (M19-MEL): > 100 µM (inactive)
GI50 (MOLT-4): > 100 µM (inactive)
GI50 (NCI-H226): > 100 µM (inactive)
GI50 (NCI-H23): > 100 µM (inactive)
GI50 (NCI-H460): > 100 µM (inactive)
GI50 (NCI-H522): > 100 µM (inactive)
GI50 (OVCAR-3): > 100 µM (inactive)
GI50 (OVCAR-4): > 100 µM (inactive)
GI50 (OVCAR-5): > 100 µM (inactive)
GI50 (OVCAR-8): > 100 µM (inactive)
GI50 (SF-268): > 100 µM (inactive)
GI50 (SF-295): > 100 µM (inactive)
GI50 (SF-539): > 100 µM (inactive)
GI50 (SK-MEL-28): > 100 µM (inactive)
GI50 (SK-MEL-5): > 100 µM (inactive)
GI50 (SK-OV-3): > 100 µM (inactive)
GI50 (SN12C): > 100 µM (inactive)
GI50 (SNB-19): > 100 µM (inactive)
GI50 (SNB-75): > 100 µM (inactive)
GI50 (SNB-78): > 100 µM (inactive)
GI50 (SR): > 100 µM (inactive)
GI50 (SW-620): > 100 µM (inactive)
GI50 (TK-10): > 100 µM (inactive)
GI50 (U-251): > 100 µM (inactive)
GI50 (UACC-257): > 100 µM (inactive)
GI50 (UACC-62): > 100 µM (inactive)
GI50 (UO-31): > 100 µM (inactive)

O=CC1=CCC2c3[nH]c4ccccc4c3CCN2C1 (stereo not drawn)
GI50 (786-0): 141 µM (inactive)
GI50 (A549): > 396 µM (inactive)
GI50 (ACHN): 219 µM (inactive)
GI50 (CAKI-1): > 396 µM (inactive)
GI50 (CCRF-CEM): 107 µM (inactive)
GI50 (COLO 205): 232 µM (inactive)
GI50 (DLD-1): 85.5 µM (inactive)
GI50 (DMS-114): 74.3 µM (inactive)
GI50 (DMS-273): 82.4 µM (inactive)
GI50 (EKVX): > 396 µM (inactive)
GI50 (HCC 2998): 103 µM (inactive)
GI50 (HCT-116): 61.7 µM (inactive)
GI50 (HCT-15): 68.1 µM
GI50 (HL-60): 77.6 µM (inactive)
GI50 (HOP-18): > 396 µM (inactive)
GI50 (HOP-62): > 39.6 µM (inactive)
GI50 (HOP-92): 111 µM (inactive)
GI50 (HT-29): 101 µM (inactive)
GI50 (IGROV-1): 125 µM (inactive)
GI50 (K562): 130 µM (inactive)
GI50 (KM-20L2): 135 µM (inactive)
GI50 (KM12): 73.1 µM (inactive)
GI50 (LOX IMVI): 58.7 µM (inactive)
GI50 (LXFL 529): 55.7 µM (inactive)
GI50 (M19-MEL): 71.8 µM (inactive)
GI50 (MOLT-4): 90.2 µM (inactive)
GI50 (Malme-3M): 296 µM (inactive)
GI50 (NCI-H226): 117 µM (inactive)
GI50 (NCI-H23): 83 µM (inactive)
GI50 (NCI-H460): 139 µM (inactive)
GI50 (NCI-H522): 325 µM (inactive)
GI50 (OVCAR-3): 92.5 µM (inactive)
GI50 (OVCAR-5): > 396 µM (inactive)
GI50 (OVCAR-8): 139 µM (inactive)
GI50 (RPMI-8226): 112 µM (inactive)
GI50 (RXF 393): 182 µM (inactive)
GI50 (SF-268): 167 µM (inactive)
GI50 (SF-295): 106 µM (inactive)
GI50 (SF-539): 175 µM (inactive)
GI50 (SK-MEL-28): 90.6 µM (inactive)
GI50 (SK-MEL-2): 90.8 µM (inactive)
GI50 (SK-MEL-5): 114 µM (inactive)
GI50 (SK-OV-3): 132 µM (inactive)
GI50 (SN12C): 102 µM (inactive)
GI50 (SNB-19): 258 µM (inactive)
GI50 (SR): 105 µM (inactive)
GI50 (SW-620): 122 µM (inactive)
GI50 (TK-10): 259 µM (inactive)
GI50 (U-251): 80 µM (inactive)
GI50 (UACC-257): 98.9 µM (inactive)
GI50 (UACC-62): 93.8 µM (inactive)
GI50 (XF498): 72.3 µM (inactive)
